Laboratory results from patent US7220824B1, “Integrin-mediated drug targeting” (Bayer Aktiengesellschaft, priority 2000, dated 2007).

Experiments:
[1] = target: T1, αvβ3 receptor (αvβ3 from human A375 cells) (Homo sapiens, UniProt P05106+P06756); assay: αvβ3 binding test (echistatin displacement, WGA SPA beads)
T1 construct: αvβ3 from human A375 cells was purified analogously to a procedure which was described by Wong et al; endogenous in cells; host or cells: human A375 cells; the receptor was purified from the cells and used detergent-solubilised (n-octyl-glucopyranoside)
Description: αvβ3 from human A375 cells was purified analogously to a procedure which was described by Wong et al. (Molecular Pharmacology, 50, 529–537 (1996)). In each case, 10 μl of αvβ3 (5 ng) in TBS pH 7.6, 2 mM CaCl2, 1 mM MgCl2, 1% n-octyl-glucopyranoside (Sigma); 10 μl of test substance in TBS pH 7.6, 0.1% DMSO and 45 μl of TBS pH 7.6, 2 mM CaCl2, 1 mM MgCl2, 1 mM MnCl2 were incubated at room temperature for 1 h. In each case, 25 μl of WGA SPA beads (Amersham, 4 mg/ml) and 10 μl of echistatin ([…], Amersham, chloramine-T labelled) were then added. After 16 hours at room temperature, the samples were measured in a scintillation measuring apparatus (Wallac 1450).

[2] = system: hemopoietic stem cells (bone marrow cells); assay: CSF-induced proliferation of hemopoietic stem cells; format: cell-based, mice; conditions: Mus musculus, Bone marrow cell, 168 h, read-out: IC50, CSF-induced proliferation of hemopoietic stem cells, mouse bone marrow cells, recombinant murine GM-CSF, 7 days, colony count
Description: Bone marrow cells are flushed out of the femur of mice. 10^5 cells are incubated in McCoy 5A medium (0.3% agar) together with recombinant murine GM-CSF (Genzyme; parent cell colony formation) and the substances (10^−4 to 100 μg/ml) at 37° C. and 7% CO2. 7 days later, the colonies (<50 cells) and clusters (17–50 cells) are counted.

[3] = system: SW480; assay: Growth inhibition test (MTT), cytotoxic action on tumour cell lines; format: cell-based; conditions: Homo sapiens, SW480, 144 h, read-out: IC50 values of the cytotoxic action on tumour cell lines, SW480
Description: (§1) The human large intestine cell lines SW 480 and HT29 (ATCC No. CCL 228 and HTB38), the human breast cell lines MDA-MB 231, MCF-7 and BT20 (ATCC No. HTB-, 26, 22 and 23) and the mouse melanoma cell line B16F 10 (CRL 6475) were grown to confluence in Roux dishes in RPMI 1640 medium with addition of 10% FCS. They were then trypsinized and taken up in RPMI plus 10% FCS to a cell count of 50,000 cells or, for B16F10, 20,000 cells per ml. 100 μl of cell suspension/well were added to a 96 microwell plate and incubated at 37° C. for 1 day in a CO2 incubator. A further 100 μl of RPMI medium and 1 μl of DMSO were then added with the test substances. The growth was checked after day 6. For this, 25 μl of MTT solution (3-(4,5-dimethylthiazol-2-yl)-2,5-diphenyltetrazolium bromide) was added to each well at a starting concentration of 5 mg/ml of H2O. The plate was incubated at 37° C. for 5 hours in a CO2 incubator. The medium was then aspirated and 100 μl of i-propanol/well were added. After shaking with 100 μl of H2O for 30 min, the extinction was measured at 595-nm using a Multiplate Reader (BIO-RAD 3550-UV).
(§2) The cytostatic action is indicated in Table 2 as an IC50 value, in each case for the individual cell lines.

[4] = system: MCF7; assay: as above; format: cell-based; conditions: Homo sapiens, MCF7, 144 h, read-out: IC50 values of the cytotoxic action on tumour cell lines, MCF7
Description: as §1, §2

[5] = system: HT 29; assay: as above; format: cell-based; conditions: Homo sapiens, HT-29, 144 h, read-out: IC50 values of the cytotoxic action on tumour cell lines, HT 29
Description: as §1, §2

[6] = system: MDA-MB 231; assay: as above; format: cell-based; conditions: Homo sapiens, MDA-MB-231, 144 h, read-out: IC50 values of the cytotoxic action on tumour cell lines, MDA-MB 231
Description: as §1, §2

[7] = system: B16F10; assay: as above; format: cell-based; conditions: Mus musculus, B16-F10, 144 h, read-out: IC50 values of the cytotoxic action on tumour cell lines, B16F10
Description: as §1, §2

[8] = system: BT20; assay: as above; format: cell-based; conditions: Homo sapiens, BT-20, 144 h, read-out: IC50 values of the cytotoxic action on tumour cell lines, BT20
Description: as §1, §2

[9] = system: human breast cancer xenograft MX1; assay: In-vivo inhibition of tumour growth using a nude mouse model; set-up: species or system athymic nude mice (NMRI nu/nu strain); conditions: subcutaneous MX1 xenograft in nude mice; 40 mg/kg given on day 1–3 and 14–16; T/C in percent
Description: In all in-vivo experiments for investigating the inhibition of tumour growth, athymic nude mice (NMRI nu/nu strain) were used. The tumour was developed by serial passage in nude mice. The human origin of the tumour was confirmed by isoenzymatic and immunohistochemical methods.
The tumour was implanted subcutaneously in both flanks of nu/nu nude mice 6 to 8 weeks old. The treatment was started, depending on the doubling time, as soon as the tumours had reached a diameter of 5–7 mm. The mice were assigned to the treatment group or the control group (5 mice per group having 8–10 assessable tumours) by randomization. The individual tumours of the control group all grew progressively.
The size of the tumours was measured in two dimensions by means of a slide gauge. The tumour volume, which correlated well with the cell count, was then used for all assessments. The volume was calculated according to the formula “length×breadth×breadth/2” ([a×b^2]/2, a and b represent two diameters arranged at right angles).
The values of the relative tumour volume (RTV) were calculated for each individual tumour by dividing the tumour size on day X with the tumour size on day 0 (at the time of randomization). […]
The inhibition of the increase of the tumour volume (tumour volume of the test group/control group, T/C, in percent) was the final measured value. […]

T1 sequence (P06756 31-889 limits assumed): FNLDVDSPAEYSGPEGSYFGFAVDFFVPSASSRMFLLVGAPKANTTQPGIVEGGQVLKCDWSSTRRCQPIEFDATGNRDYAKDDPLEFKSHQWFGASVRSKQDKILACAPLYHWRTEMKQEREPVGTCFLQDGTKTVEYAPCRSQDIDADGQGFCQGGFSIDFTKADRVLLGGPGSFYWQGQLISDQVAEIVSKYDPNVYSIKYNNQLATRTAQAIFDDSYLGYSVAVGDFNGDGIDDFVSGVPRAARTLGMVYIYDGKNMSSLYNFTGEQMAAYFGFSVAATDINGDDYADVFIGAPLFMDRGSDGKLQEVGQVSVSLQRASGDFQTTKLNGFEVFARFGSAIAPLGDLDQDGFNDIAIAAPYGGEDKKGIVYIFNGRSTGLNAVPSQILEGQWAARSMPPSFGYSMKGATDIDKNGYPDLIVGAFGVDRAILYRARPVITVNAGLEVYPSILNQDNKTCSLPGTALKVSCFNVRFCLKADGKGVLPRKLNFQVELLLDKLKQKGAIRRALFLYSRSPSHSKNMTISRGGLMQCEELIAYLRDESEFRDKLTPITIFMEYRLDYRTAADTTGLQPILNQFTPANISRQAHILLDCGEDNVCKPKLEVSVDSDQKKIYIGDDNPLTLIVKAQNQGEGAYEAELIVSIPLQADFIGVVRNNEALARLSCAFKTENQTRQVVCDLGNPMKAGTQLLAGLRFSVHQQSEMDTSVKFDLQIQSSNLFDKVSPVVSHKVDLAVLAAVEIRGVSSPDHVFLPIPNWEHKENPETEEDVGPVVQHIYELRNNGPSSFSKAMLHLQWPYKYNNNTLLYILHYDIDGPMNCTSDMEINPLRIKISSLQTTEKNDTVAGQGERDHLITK
T1 sequence (P06756 891-1048 partner limits assumed): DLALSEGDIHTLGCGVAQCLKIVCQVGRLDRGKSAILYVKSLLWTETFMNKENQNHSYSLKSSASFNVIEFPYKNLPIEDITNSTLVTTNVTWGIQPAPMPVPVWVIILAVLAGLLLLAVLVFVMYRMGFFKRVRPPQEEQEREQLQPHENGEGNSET
T1 sequence (P05106 27-788): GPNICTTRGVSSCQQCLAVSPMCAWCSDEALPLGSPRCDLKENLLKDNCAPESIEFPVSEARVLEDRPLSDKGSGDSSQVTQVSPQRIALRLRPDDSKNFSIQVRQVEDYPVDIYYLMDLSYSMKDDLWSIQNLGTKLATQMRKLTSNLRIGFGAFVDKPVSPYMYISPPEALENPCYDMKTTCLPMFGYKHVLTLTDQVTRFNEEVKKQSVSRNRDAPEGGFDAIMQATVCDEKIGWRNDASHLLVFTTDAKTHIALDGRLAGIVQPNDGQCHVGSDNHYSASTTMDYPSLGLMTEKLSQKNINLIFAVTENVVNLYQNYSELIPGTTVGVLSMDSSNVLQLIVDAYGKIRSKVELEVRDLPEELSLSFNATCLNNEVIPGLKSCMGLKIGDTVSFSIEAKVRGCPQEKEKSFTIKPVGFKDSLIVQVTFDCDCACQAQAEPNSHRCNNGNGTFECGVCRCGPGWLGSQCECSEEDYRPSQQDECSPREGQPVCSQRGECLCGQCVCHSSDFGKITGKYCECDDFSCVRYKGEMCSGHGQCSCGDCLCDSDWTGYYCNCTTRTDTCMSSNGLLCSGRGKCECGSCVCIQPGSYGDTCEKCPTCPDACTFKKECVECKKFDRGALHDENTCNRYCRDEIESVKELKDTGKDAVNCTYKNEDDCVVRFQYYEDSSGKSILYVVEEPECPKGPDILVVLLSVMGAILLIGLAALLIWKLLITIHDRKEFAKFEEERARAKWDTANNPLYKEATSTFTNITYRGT

Q: How did the IC50 [1] turn out when `CC[C@@]1(OC(=O)[C@@H](NC(=O)[C@H](Cc2c[nH]cn2)NC(=S)Nc2ccc(NC(=O)NC(CC(=O)O)c3cccc(NS(=O)(=O)c4cccc(NC(=N)N)c4)c3)cc2)C(C)C)C(=O)OCc2c1cc1n(c2=O)Cc2cc3ccccc3nc2-1` (stereo partly drawn) [Example 3.5] was run?
A: 36 nM

Q: What about the IC50 [2] of the same compound?
A: 0.02 µg/mL

Q: And the IC50 [3]?
A: 200 nM

Q: And the IC50 [4]?
A: 150 nM

Q: What about the IC50 [5] of the same compound?
A: 150 nM

Q: And the IC50 [6]?
A: 150 nM

Q: What about the IC50 [7] of the same compound?
A: 900 nM

Q: And the IC50 [8]?
A: 500 nM

Q: With `CC[C@@]1(OC(=O)[C@@H](NC(=O)[C@H](Cc2cnc[nH]2)NC(=S)Nc2cccc(C(CC(=O)O)NS(=O)(=O)c3ccc(-c4cccc(NC(=O)Nc5nc6ccccc6[nH]5)c4)cc3)c2)C(C)C)C(=O)OCc2c1cc1n(c2=O)Cc2cc3ccccc3nc2-1` (stereo partly drawn) [Example 3.8] as the compound, how does the IC50 [1] read?
A: 25 nM

Q: And the IC50 [2]?
A: 0.025 µg/mL

Q: And the “optimal T/C (tumour volume of the test group/control group)” value [9]?
A: 15.9

Q: And the IC50 [3]?
A: 350 nM

Q: What about the IC50 [4] of the same compound?
A: 200 nM

Q: And the IC50 [5]?
A: 200 nM

Q: And the IC50 [6]?
A: 200 nM

Q: What about the IC50 [7] of the same compound?
A: 800 nM

Q: And the IC50 [8]?
A: 400 nM

Q: For `CCCNC(=O)Nc1cccc(S(=O)(=O)Nc2cccc(C(CC(=O)O)NC(=O)Nc3ccc(NC(=S)N[C@@H](Cc4c[nH]cn4)C(=O)N[C@H](C(=O)O[C@]4(CC)C(=O)OCc5c4cc4n(c5=O)Cc5cc6ccccc6nc5-4)C(C)C)cc3)c2)c1` (stereo partly drawn) [Example 3.13], which IC50 [1] is on record?
A: 14 nM

Q: And the IC50 [2]?
A: 0.04 µg/mL

Q: And the IC50 [3]?
A: 200 nM

Q: And the IC50 [4]?
A: 100 nM

Q: What about the IC50 [5] of the same compound?
A: 90 nM

Q: What about the IC50 [6] of the same compound?
A: 200 nM

Q: What about the IC50 [7] of the same compound?
A: 200 nM

Q: What about the IC50 [8] of the same compound?
A: 150 nM

Q: For `CCCNC(=O)Nc1cccc(S(=O)(=O)Nc2cccc(C(CC(=O)O)NC(=O)CCCC(=O)N3CCC[C@H]3C(=O)N[C@@H](CC(C)C)C(=O)NCC(=O)N[C@@H](CC(C)C)C(=O)O[C@]3(CC)C(=O)OCc4c3cc3n(c4=O)Cc4cc5ccccc5nc4-3)c2)c1` (stereo partly drawn) [Example 3.23], which IC50 [1] is on record?
A: 355 nM

Q: What about the IC50 [2] of the same compound?
A: 0.006 µg/mL
